The text below walks through data of PMC3720812, “YjcC, a c-di-GMP Phosphodiesterase Protein, Regulates the Oxidative Stress Response and Virulence of Klebsiella pneumoniae CG43” (PLoS ONE, 2013).

Molecules are shown by their SMILES.

The target in assay [1] is T1, MrkJ (Klebsiella pneumoniae, UniProt G3FT02).
T1 construct: recombinant from pET30b-mrkJ, E. coli BL21(DE3), purified
Nature of the assay: release of p-nitrophenol at […] nm. Format: biochemical. The conditions noted are these: positive control enzyme; activity only in figure.

For assay [2], the target named is T2, YjcC-EAL domain (Klebsiella pneumoniae, UniProt A6TGY2).
T2 construct: EAL domain only (C-terminal)
T2 sequence (A6TGY2 entry or part of it): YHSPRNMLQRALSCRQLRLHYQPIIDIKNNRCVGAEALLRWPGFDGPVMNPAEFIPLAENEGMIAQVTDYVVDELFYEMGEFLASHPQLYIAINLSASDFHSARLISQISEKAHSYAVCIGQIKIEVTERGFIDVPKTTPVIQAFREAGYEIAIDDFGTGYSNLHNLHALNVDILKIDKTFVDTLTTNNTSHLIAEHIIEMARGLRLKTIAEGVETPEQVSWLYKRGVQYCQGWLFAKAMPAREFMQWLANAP
As to the kind of experiment: release of p-nitrophenol at […] nm. The format is biochemical. The conditions noted are these: chromogenic model substrate; activity only in figure.

T1 sequence (G3FT02 entry or part of it): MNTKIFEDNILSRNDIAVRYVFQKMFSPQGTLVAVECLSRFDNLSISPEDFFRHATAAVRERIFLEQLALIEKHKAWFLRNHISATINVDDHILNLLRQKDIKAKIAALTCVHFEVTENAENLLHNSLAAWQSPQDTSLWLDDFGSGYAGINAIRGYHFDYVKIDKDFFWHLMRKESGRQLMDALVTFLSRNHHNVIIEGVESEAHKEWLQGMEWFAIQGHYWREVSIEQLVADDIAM

On to `O=[N+]([O-])c1ccc(OP(=O)(O)Oc2ccc([N+](=O)[O-])cc2)cc1` [bis(p-nitrophenyl) phosphate], for which the “specific PDE activity” value in assay [1] was “This activity is lower than the level of the recombinant MrkJ”; in assay [2], “the purified EAL domain protein exhibits PDE activity towards pNpp”.
